From patent publication US20220062429A1, “METHOD FOR ENHANCING EXPRESSION OF MOISTURIZING-RELATED SUBSTANCE IN EPIDERMIS” (J-Network, Inc., priority 2020, published 2022)

Legend:
Type in all cases: cell-based
[1] = test system: filaggrin; assay: Test 1 on promotion of filaggrin production: filaggrin immunostaining of human three-dimensional cultured epidermis model; details: 2%, 3.5% solutions in PBS(−) (Samples 2-4)
Experimental: After samples were prepared using a human epidermis model, production of filaggrin was observed by applying two staining methods, that is, an immunostaining method using an anti-filaggrin antibody and the method of Hematoxylin Eosin staining.
A human three-dimensional cultured epidermis model (hereinafter, “epidermis model”) (LabCyteEPI-MODEL24 6D: from Japan Tissue Engineering Co., Ltd.) was subjected to treatment in the following manner to prepare samples.
First, the epidermis model was incubated in an agar medium at room temperature for 24 hours. Thereafter, the epidermis model was cultured in a medium (an assay medium: from Japan Tissue Engineering Co., Ltd.) at 37° C. for 48 hours. […]
Thereafter, an anti-filaggrin antibody (from GeneTex, Inc.) was made to react with that section at 37° C. overnight, and an anti-mouse IgG Alexa Fluor (registered trademark) 488 antibody (from Cell Signaling Technology, Inc.) was further made to react at 37° C. for 2 hours. […] Then, green fluorescence and blue fluorescence were observed using a fluorescence microscope. The green fluorescence indicates the presence of filaggrin. The blue fluorescence is for confirming that there is no abnormality in cells of the epidermis model.

[2] = test system: filaggrin; assay: Test 2 on promotion of filaggrin production: dot blotting in normal human epidermal cells; details: 72 hours
Experimental: After samples were prepared using human epidermal cells, production of filaggrin was observed by dot blotting and the quantity of filaggrin was determined.
Normal human epidermal cells (hereinafter, “epidermal cells”) (from Kurabo Industries Ltd.) were seeded at a cell density of 1.0×10^4 cells/well in a 96-well culture plate using a growth medium (KG2 medium: from Kurabo Industries Ltd.). After the cells were cultured at 37° C. under 5% carbon dioxide for 24 hours, the medium was replaced with media (KB2 media not containing bovine pituitary extract: from Kurabo Industries Ltd.) to which Samples 5 to 10 described below were respectively added. Each of Samples 5 and 8 as controls is a medium only. Samples 6, 7, 9, and 10 are different from one another in the type and/or concentration (mass % with respect to the medium) of a diacylglycerol PEG adduct to be added to the medium. • Sample 5: Control (N.C.) • Sample 6: GDM12 (0.0005%) • Sample 7: GDM12 (0.0010%) • Sample 8: Control (N.C.) • Sample 9: GDS23 (0.0025%) • Sample 10: GDS23 (0.0050%)
Thereafter, for each sample, the epidermal cells were cultured at 37° C. under 5% carbon dioxide for 72 hours. Subsequently, the epidermal cells were cleaned with PBS(−), 0.5% Triton X-100 (containing 2 mM PMSF) was then added, and thereafter the cells were disrupted by sonication.
A fixed amount of the suspension of disrupted cells was blotted on a nitrocellulose membrane and dried overnight. The transfer membrane after drying was immersed in a PBS solution of 1% BSA and blocked at room temperature for 1 hour. Thereafter, the membrane was cleaned with PBS(−), and an anti-human filaggrin antibody (Anti-Filaggrin: from ARGENE SA) was added onto the transfer membrane at a dilution concentration of 1:4000. The mixture was made to react at room temperature for 1 hour, and then the transfer membrane was cleaned with a PBS solution.
Thereafter, an immunohistochemical staining reagent (Histofine Simple Stain MAX-PO(M): from Nichirei Biosciences Inc.) was added onto the transfer membrane at a dilution concentration of 1:100 and was made to react at room temperature for 1 hour. […]
The brightness of each spot in the spot image obtained by dot blotting was quantitively determined using an analyzer (CS Analyzer Version 2.0: from ATTO Corporation).
FIG. 2a illustrates respective spot images for Samples 5, 6 and 7 related to GDM12, and FIG. 2b illustrates the production quantity of filaggrin for each sample determined based on FIG. 2a. The vertical axis of the graph represents the relative quantity when the quantity for the control N.C. is assumed as 100% (the same representation is also applied to graphs in drawings that will be described later).

[3] = test system: profilaggrin mRNA; assay: Amplification test of profilaggrin mRNA (quantitative real-time PCR) in normal human epidermal cells; details: for expression of profilaggrin mRNA, relative to N.C. = 100%: corrected with cyclophilin
Experimental: After samples were prepared using human epidermal cells, RNA of the cells was extracted and the quantity of mRNA of profilaggrin was determined.
Normal human epidermal cells (hereinafter, “epidermal cells”) (from Kurabo Industries Ltd.) were seeded at a cell density of 2.0×10^4 cells/well in a 96-well culture plate using a growth medium (KG2 medium: from Kurabo Industries Ltd.). After the cells were cultured at 37° C. under 5% carbon dioxide for 24 hours, the media were replaced with media (KB2 media not containing bovine pituitary extract: from Kurabo Industries Ltd.) to which Samples 11 to 18 described below were respectively added. Each of Samples 11, 14, and 17 as controls is a medium only. Samples 12, 13, 15, 16, and 18 are different from one another in the type and/or concentration (mass % with respect to the medium) of a diacylglycerol PEG adduct. • Sample 11: Control (N.C.) • Sample 12: GDS12 (0.100%) • Sample 13: GDS12 (0.050%) • Sample 14: Control (N.C.) • Sample 15: GDM12 (0.001%) • Sample 16: GDM12 (0.004%) • Sample 17: Control (N.C.) • Sample 18: GDS23 (0.002%)
Thereafter, the epidermal cells were cultured at 37° C. under 5% carbon dioxide for 3 hours. Subsequently, RNA was extracted from the cells.
Reverse transcription of the extracted RNA was performed to generate cDNA, and the quantity of profilaggrin mRNA was determined by quantitative real-time PCR expression analysis. Cyclophilin was used as an internal standard. In the analysis, the expression level of profilaggrin was corrected with a value of the expression level of cyclophilin as the internal standard in the same sample, and thereafter the correction value for each sample was calculated assuming the correction value for the control N.C. as 100%.

[4] = test system: caspase-14 mRNA; assay: Caspase-14 mRNA expression (quantitative real-time PCR) in normal human epidermal cells; details: for expression of caspase-14 mRNA versus N.C. / expression of caspase-14 mRNA, relative to N.C. = 100%: 3 hours; for expression of caspase-14 mRNA, relative to N.C. = 100%: corrected with cyclophilin
Experimental: After samples were prepared using human epidermal cells, RNA of the cells was extracted and the quantity of caspase-14 mRNA was determined.
Normal human epidermal cells (hereinafter, “epidermal cells”) (from Kurabo Industries Ltd.) were seeded at a cell density of 2.0×10^4 cells/well in a 96-well culture plate using a growth medium (KG2 medium: from Kurabo Industries Ltd.). After the cells were cultured at 37° C. under 5% carbon dioxide for 24 hours, the media were replaced with media (KB2 media not containing bovine pituitary extract: from Kurabo Industries Ltd.) to which Samples 19 to 26 described below were respectively added. Each of Samples 19 and 24 as controls is a medium only. Samples 20, 21, 22, 23, and 25 are different from one another in the type and/or concentration (mass % with respect to the medium) of a diacylglycerol PEG adduct contained in the medium. • Sample 19: Control (N.C.) • Sample 20: GDM12 (0.001%) • Sample 21: GDM12 (0.004%) • Sample 22: GDM12 (0.020%) • Sample 23: GDM12 (0.100%) • Sample 24: Control (N.C.) • Sample 25: GDS23 (0.0004%)
Subsequently, the epidermal cells were cultured at 37° C. under 5% carbon dioxide for 3 hours. Subsequently, RNA was extracted from the cells.
Reverse transcription of the extracted RNA was performed to generate cDNA, and the quantity of caspase-14 mRNA was determined by quantitative real-time PCR expression analysis. Cyclophilin was used as an internal standard. In the analysis, the expression level of caspase-14 was corrected with a value of the expression level of cyclophilin as the internal standard in the same sample, and thereafter the correction value of each sample was calculated, assuming the correction value of the control sample as 100%.

PEG-12 glycerol dimyristate [GDM12]
concentration dependence of production quantity of filaggrin [1]: more as the concentration of the GDM12 solution is higher
production quantity of filaggrin in the stratum corneum (green fluorescence) versus N.C. ([1]; 30 μL on stratum corneum, 18 hours, model recovered 6 days after application): more than that of the epidermis model of N.C.
production quantity of filaggrin, relative to N.C. = 100% ([2]; 0.0005% in medium (Sample 6)): ≥ 200%
production quantity of filaggrin, relative to N.C. = 100% ([2]; 0.0010% in medium (Sample 7)): ≥ 200%
increase of expression of profilaggrin mRNA versus N.C. ([3]; 0.001% in medium (Sample 15), 3 hours): slight
expression of profilaggrin mRNA, relative to N.C. = 100% ([3]; 0.004% in medium (Sample 16), 3 hours): about 150%
expression of caspase-14 mRNA versus N.C. ([4]; 0.001% in medium (Sample 20)): increased
expression of caspase-14 mRNA versus N.C. ([4]; 0.004% in medium (Sample 21)): increased
expression of caspase-14 mRNA, relative to N.C. = 100% ([4]; 0.020% in medium (Sample 22)): about 200%
expression of caspase-14 mRNA, relative to N.C. = 100% ([4]; 0.100% in medium (Sample 23)): about 400%
concentration dependence of increase of caspase-14 mRNA ([4]; Samples 20-23 (0.001% to 0.100%)): the increase is larger as the concentration of GDM12 is higher

PEG-12 glycerol distearate [GDS12]
expression of profilaggrin mRNA, relative to N.C. = 100% ([3]; 0.050% in medium (Sample 13), 3 hours): about 150%
expression of profilaggrin mRNA, relative to N.C. = 100% ([3]; 0.100% in medium (Sample 12), 3 hours): about 150%
concentration dependence of increase of profilaggrin mRNA ([3]; Samples 12 and 13 (0.100%, 0.050%)): the increase is larger as the concentration of GDS12 is higher

PEG-23 glycerol distearate [GDS23]
production quantity of filaggrin, relative to N.C. = 100% ([2]; 0.0025% in medium (Sample 9)): about 200%
production quantity of filaggrin, relative to N.C. = 100% ([2]; 0.0050% in medium (Sample 10)): about 200%
expression of profilaggrin mRNA, relative to N.C. = 100% ([3]; 0.002% in medium (Sample 18), 3 hours): about 120%
expression of caspase-14 mRNA, relative to N.C. = 100% ([4]; 0.0004% in medium (Sample 25)): about 150%
